This note sets out measurements from patent US20240208955A1 (RESEARCH TRIANGLE INSTITUTE, priority 2021, published 2024).

Like-named read-outs stand apart in the source and are kept apart here.

The target in one assay is T1, human RXFP3 (Homo sapiens, UniProt Q9NSD7).
T1 sequence (Q9NSD7 1-469): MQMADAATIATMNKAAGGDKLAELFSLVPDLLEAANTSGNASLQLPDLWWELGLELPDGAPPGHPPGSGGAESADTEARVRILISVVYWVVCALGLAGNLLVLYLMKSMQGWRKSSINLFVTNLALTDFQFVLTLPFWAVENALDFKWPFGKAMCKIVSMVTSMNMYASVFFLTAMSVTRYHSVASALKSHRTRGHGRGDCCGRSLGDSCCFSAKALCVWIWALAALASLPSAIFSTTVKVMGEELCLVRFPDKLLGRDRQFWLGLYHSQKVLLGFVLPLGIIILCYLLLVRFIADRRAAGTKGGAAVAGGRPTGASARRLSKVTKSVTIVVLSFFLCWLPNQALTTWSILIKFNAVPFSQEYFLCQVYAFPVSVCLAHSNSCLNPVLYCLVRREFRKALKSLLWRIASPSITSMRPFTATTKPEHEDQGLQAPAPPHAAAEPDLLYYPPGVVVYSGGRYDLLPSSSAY
The experiment in a line: RXFP3 cAMP accumulation assay (inhibition of relaxin-3 activity) in stable CHO human RXFP3 cells.

The next assay deals with T2, RXFP1 (Homo sapiens, UniProt Q9HBX9).
T2 sequence (Q9HBX9 1-757): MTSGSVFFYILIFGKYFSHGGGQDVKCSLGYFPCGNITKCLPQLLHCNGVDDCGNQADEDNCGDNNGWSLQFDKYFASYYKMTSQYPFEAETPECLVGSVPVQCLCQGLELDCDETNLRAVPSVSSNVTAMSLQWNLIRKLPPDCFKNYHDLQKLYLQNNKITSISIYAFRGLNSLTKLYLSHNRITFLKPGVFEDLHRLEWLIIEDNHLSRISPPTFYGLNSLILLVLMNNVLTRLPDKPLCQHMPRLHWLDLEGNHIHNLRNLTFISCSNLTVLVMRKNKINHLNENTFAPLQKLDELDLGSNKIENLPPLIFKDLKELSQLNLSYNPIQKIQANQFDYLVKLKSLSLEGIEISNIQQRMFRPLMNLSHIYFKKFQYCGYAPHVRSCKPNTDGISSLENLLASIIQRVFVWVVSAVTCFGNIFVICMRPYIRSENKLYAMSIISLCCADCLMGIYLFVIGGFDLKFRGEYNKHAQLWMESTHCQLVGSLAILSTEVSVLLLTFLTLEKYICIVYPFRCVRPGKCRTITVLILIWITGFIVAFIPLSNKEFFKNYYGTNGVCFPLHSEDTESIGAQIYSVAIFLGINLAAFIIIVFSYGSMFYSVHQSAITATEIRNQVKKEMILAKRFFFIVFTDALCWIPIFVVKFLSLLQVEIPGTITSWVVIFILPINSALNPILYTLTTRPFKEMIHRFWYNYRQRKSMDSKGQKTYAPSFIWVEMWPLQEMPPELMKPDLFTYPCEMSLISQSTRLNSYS
As to the kind of experiment: Activity at RXFP1 (selectivity). It is filed as cell-based. Particulars: all concentrations tested up to 30 μM. An excerpt:
It is believed that these compounds represent the first series of small molecule RXFP3 antagonists to be described.

Where [1] appears, read: IC50 (functional RXFP3 antagonist), inhibition of relaxin-3 activity, RXFP3-CHO cAMP assay.

Procedure for human RXFP3: The assay is based on the competition between a europium chelate-labeled cAMP tracer and unlabeled cAMP produced by cells. […] CHO human RXFP3 cells were cultured in F12 media supplemented with 10% FBS, 100 units/mL penicillin, 100 μg/mL streptomycin, and 400 μg/mL geneticin. Stimulation buffer containing 1×HBSS, 5 mM HEPES (pH 7.4), 0.1% BSA stabilizer, and 0.5 mM IBMX was prepared. A concentration response curve of each test compound was prepared at 4 times the desired final concentration in 4% DMSO/stimulation buffer, and 5 μL was added to the assay plate. […] Forskolin (1 μM) was prepared at 4 times the desired concentration in stimulation buffer, and 5 μL was added to the assay plate. Cells were lifted from flasks with versene and spun at 270 g for 5 min. The cell pellet was resuspended in stimulation buffer and 5000 cells (5 μL) were added to each well. After incubating for 30 min at room temperature, Eu cAMP tracer and uLIGHT-anticAMP working solutions were added per the manufacturer's instructions.

In the case of `Cc1ccc(-c2noc(-c3ccc(NC(=O)C4CCN(Cc5ccccc5)C4)cc3)n2)cc1` (stereo not shown) [RLX-37, 1-Benyl-N-{4-[3-(4-methylphenyl)-1,2,4-oxadiazol-5-yl]phenyl}-pyrrolidine-3-carboxamide], the IC50 on human RXFP3 was > 10 µM.

With `O=C(Nc1ccc(-c2nc(-c3ccccc3)no2)cc1)C1CC(=O)N(Cc2ccccc2)C1` (stereo not shown) [RLX-2, 1-Benzyl-N-[4-(3-phenyl-1,2,4-oxadiazol-5-yl)phenyl]-5-oxopyrrolidine-3-carboxamide], the IC50 on human RXFP3 is 7.53 ± 0.998 µM.

As to `Cc1cccc(-c2noc(-c3ccc(NC(=O)C4CC(=O)N(Cc5cccnc5)C4)cc3)n2)c1` (stereo not shown) [RLX-17, N-{4-[3-(3-Methylphenyl)-1,2,4-oxadiazol-5-yl]phenyl}-5-oxo-1-[(pyridin-3-yl)methyl]-pyrrolidine-3-carboxamide], inhibition against human RXFP3 was half-maximal at 5.35 ± 1.34 µM (IC50).

At human RXFP3, `O=C(Nc1ccc(-c2nc(-c3ccc(F)cc3)no2)cc1)C1CC(=O)N(Cc2cccnc2)C1` (stereo not shown) [RLX-20, N-{4-[3-(4-Fluorophenyl)-1,2,4-oxadiazol-5-yl]phenyl}-5-oxo-1-[(pyridin-3-yl)methyl]-pyrrolidine-3-carboxamide] gave an IC50 of 1.91 ± 0.367 µM.

For `O=C(Nc1ccc(-c2nc(-c3ccc(C(F)(F)F)cc3)no2)cc1)C1CC(=O)N(Cc2ccco2)C1` (stereo not shown) [RLX-32, 1-[(Furan-2-yl)methyl]-5-oxo-N-(4-{3-[4-(trifluoromethyl)phenyl]-1,2,4-oxadiazol-5-yl}phenyl)pyrrolidine-3-carboxamide], the 50% inhibitory concentration (IC50) against human RXFP3 came out at 6.68 ± 0.349 µM.

As for `COc1ccc(-c2noc(-c3ccc(NC(=O)C4CC(=O)N(Cc5cccnc5)C4)cc3)n2)cc1` (stereo not shown) [RLX-22, N-{4-[3-(4-Methoxyphenyl)-1,2,4-oxadiazol-5-yl]phenyl}-5-oxo-1-[(pyridin-3-yl)methyl]-pyrrolidine-3-carboxamide], on human RXFP3 (inhibition of relaxin-3 (0.6 nM) activity, forskolin-stimulated cAMP accumulation, CHO human RXFP3 cells, mean ± SEM of at least three independent experiments in duplicate), the “IC50 (nM)” value is “Not active”.

On human RXFP3, `O=C(Nc1ccc(-c2nc(-c3ccc(C(F)(F)F)cc3)no2)cc1)C1CC(=O)N(Cc2cccnc2)C1` (stereo not shown) [RLX-21, 5-Oxo-1-[(pyridin-3-yl)methyl]-N-(4-{3-[4-(trifluoromethyl)phenyl]-1,2,4-oxadiazol-5-yl}phenyl)-pyrrolidine-3-carboxamide] had an IC50 of 2.5 ± 0.097 µM.

As to `Cc1ccc(-c2noc(-c3ccc(NC(=O)C4CC(=O)N(CCc5ccccc5)C4)cc3)n2)cc1` (stereo not shown) [RLX-4, N-{4-[3-(4-Methylphenyl)-1,2,4-oxadiazol-5-yl]phenyl}-5-oxo-1-(2-phenylethyl)pyrrolidine-3-carboxamide], the 50% inhibitory concentration (IC50) against human RXFP3 is > 10 µM.

`O=C(Nc1ccc(-c2nc(-c3ccc(Br)cc3)no2)cc1)C1CC(=O)N(Cc2cccnc2)C1` (stereo not shown) [RLX-25, N-{4-[3-(4-Bromophenyl)-1,2,4-oxadiazol-5-yl]phenyl}-5-oxo-1-[(pyridin-3-yl)methyl]-pyrrolidine-3-carboxamide] gave an IC50 against human RXFP3 of 2.89 ± 0.193 µM.

Turning to `O=C(Nc1ccc(-c2nc(-c3ccc(Cl)cc3)no2)cc1)C1CC(=O)N(Cc2cccnc2)C1` (stereo not shown) [RLX-24, N-{4-[3-(4-Chlorophenyl)-1,2,4-oxadiazol-5-yl]phenyl}-5-oxo-1-[(pyridin-3-yl)methyl]-pyrrolidine-3-carboxamide], the IC50 against human RXFP3 is 1.25 ± 0.219 µM; on human RXFP3 (setting [1]), 1.2 µM.

Molecule `Cc1ccc(-c2noc(-c3ccc(NC(=O)C4CC(=O)N(Cc5cccnc5)C4)cc3)n2)cc1` (stereo not shown) [RLX-10, N-{4-[3-(4-Methylphenyl)-1,2,4-oxadiazol-5-yl]phenyl}-5-oxo-1-[(pyridin-3-yl)methyl]-pyrrolidine-3-carboxamide] had an IC50 against human RXFP3 of 2.35 ± 0.248 µM.

Regarding `O=C(Nc1ccc(-c2nc(-c3ccccc3)no2)cc1)C1CC(=O)N(Cc2cccnc2)C1` (stereo not shown) [RLX-16, 5-Oxo-N-[4-(3-phenyl-1,2,4-oxadiazol-5-yl)phenyl]-1-[(pyridin-3-yl)methyl]-pyrrolidine-3-carboxamide], the IC50 against human RXFP3 came out at 6.61 ± 0.909 µM. Compared with the last molecule, the IC50 is about 2.8-fold higher.

`Cc1ccc(-c2noc(-c3ccc(NC(=O)CCNCc4ccccc4)cc3)n2)cc1` [RLX-39, 3-[Benzylamino]-N-{4-[3-(4-methylphenyl)-1,2,4-oxadiazol-5-yl]phenyl}propanamide]: it took 5.59 ± 0.623 µM to reach half-maximal inhibition on human RXFP3 (IC50).

The molecule `Cc1ccc(-c2noc(-c3ccc(NC(=O)C4CC(=O)N(Cc5ccccn5)C4)cc3)n2)cc1` (stereo not shown) [RLX-9, N-{4-[3-(4-Methylphenyl)-1,2,4-oxadiazol-5-yl]phenyl}-5-oxo-1-[(pyridin-2-yl)methyl]-pyrrolidine-3-carboxamide] registered an IC50 against human RXFP3 of 4.81 ± 0.682 µM.

Turning to `O=C(Nc1ccc(-c2nc(-c3cccc(F)c3)no2)cc1)C1CC(=O)N(Cc2cccnc2)C1` (stereo not shown) [RLX-19, N-{4-[3-(3-Fluorophenyl)-1,2,4-oxadiazol-5-yl]phenyl}-5-oxo-1-(3-pyridinylmethyl) pyrrolidine-3-carboxamide], the IC50 on human RXFP3 was 1.34 ± 0.226 µM; against human RXFP3 (setting [1]) it was 1.3 µM.

Turning to `O=C(Nc1ccc(-c2nc(-c3ccc(Cl)cc3)no2)cc1)C1CC(=O)N(Cc2ccco2)C1` (stereo not shown) [RLX-33, N-{4-[3-(4-Chlorophenyl)-1,2,4-oxadiazol-5-yl]phenyl}-1-[(furan-2-yl)methyl]-5-oxopyrrolidine-3-carboxamide], the “activity at RXFP1” value at RXFP1 is given as “no activity”. The figures for the IC50 against human RXFP3 and against human RXFP3 (setting [1]) were 2.88 ± 0.321 µM and 2.9 µM, respectively.

`Cc1ccc(-c2noc(-c3ccc(NC(=O)C4CC(=O)N(Cc5cccc(C)c5)C4)cc3)n2)cc1` (stereo not shown) [RLX-8, 1-[(3-Methylphenyl)methyl]-N-{4-[3-(4-methylphenyl)-1,2,4-oxadiazol-5-yl]phenyl}-5-oxopyrrolidine-3-carboxamide]: the IC50 on human RXFP3 was > 10 µM.

In the case of `Cc1ccc(-c2noc(-c3ccc(NC(=O)C4CC(=O)N(C)C4)cc3)n2)cc1` (stereo not shown) [RLX-15, 1-Methyl-N-{4-[3-(4-methylphenyl)-1,2,4-oxadiazol-5-yl]phenyl}-5-oxopyrrolidine-3-carboxamide], the midpoint of inhibition at human RXFP3, the IC50, lay at 2.72 ± 0.384 µM.
